Laboratory results taken from patent publication US6399617B1, “Use” (Biovitrum AB, priority 2000, dated 2002).

Experiments:
ob/ob mice = assay: Effect of compounds on food intake in ob/ob mice (15 h food consumption during subcutaneous minipump infusion); type: in vivo, mouse; details: subcutaneous continuous infusion
Experimental: Obese (ob/ob) mouse is selected as the primary animal model for screening as this mutant mouse consumes high amounts of food resulting in a high signal to noise ratio. To further substantiate and compare efficacy data, the effect of the compounds on food consumption is also studied in wild type (C57BL/6J) mice. The amount of food consumed during 15 hours of infusion of compounds is recorded.
Male mice (obese C57BL/6JBom-Lep^ob and lean wild-type C57B1/6JBom; Bomholtsgaard, Denmark) 8-9 weeks with an average body weight of 50 g (obese) and 25 g (lean) are used in all the studies. The animals are housed singly in cages at 23±1° C., 40-60% humidity and have free access to water and standard laboratory chow. The 12/12-h light/dark cycle is set to lights off at 5 p.m. The animals are conditioned for at least one week before start of study.
The test compounds are dissolved in solvents suitable for each specific compound such as cyclodextrin, cyclodextrin/methane sulfonic acid, polyethylene glycol/methane sulfonic acid, or saline. Fresh solutions are made for each study. […] The purity of the test compounds is of analytical grade.
The animals are weighed at the start of the study and randomized based on body weight. Alzet osmotic minipumps (Model 2001D; infusion rate 8 μl/h) are used and loaded essentially as recommended by the Alzet technical information manual (Alza Scientific Products, 1997; Teeuwes and Yam, 1976). Continuous subcutaneous infusion with 24 hours duration is used. The minipumps are either filled with different concentrations of test compounds dissolved in vehicle or with only vehicle solution and maintained in vehicle pre-warmed to 37° C. […]
The weights of the food pellets are measured at 5 p.m. and at 8 p.m. for two days before (baseline) and one day after the implantation of the osmotic minipumps. […]
Food consumption for 15 hours is measured for the three consecutive days and the percentage of basal level values is derived for each animal from the day before and after treatment. The values are expressed as mean±SD and mean±SEM from eight animals per dose group. […]

[1] = Determination of plasma concentration (free plasma concentration at steady state); type: in vivo, mouse; details: ob/ob mice, subcutaneous continuous infusion
Experimental: The weights of the food pellets are measured at 5 p.m. and at […]. for two days before (baseline) and one day after the implantation of the osmotic minipumps. The weighing is performed with a computer assisted Mettler Toledo PR 5002 balance. Occasional spillage is corrected for. At the end of the study the animals are killed by neck dislocation and trunk blood sampled for later analysis of plasma drug concentrations.
The plasma sample proteins are precipitated with methanol, centrifuged and the supernatant is transferred to HPLC vials and injected into the liquid chromatography/mass spectrometric system. The mass spectrometer is set for electrospray positive ion mode and Multiple Reaction Monitoring (MRM with the transition m/z 316⇄221).
A linear regression analysis of the standards forced through the origin is used to calculate the concentrations of the unknown samples.

## COc1ccc(NS(=O)(=O)c2sc3ccc(Cl)cc3c2C)cc1N1CCNCC1.Cl [SB-271046, 5-Chloro-3-methyl-benzo-[b]thiophene-2-sulphonic acid (4-methoxy-3-piperazin-yl-phenyl)-amide monohydrochloride]
ob/ob mice; 10 mg/kg/day
  reduction of food intake compared to the basal level of food intake: 45%
ob/ob mice; 30 mg/kg/day
  reduction of food intake compared to the basal level of food intake: 60%
ob/ob mice; 50 mg/kg/day
  reduction of food intake compared to the basal level of food intake: 77%
[1]; 10 mg/kg/day
  Free plasma concentration at the steady state giving the effect: 0.006
[1]; 30 mg/kg/day
  Free plasma concentration at the steady state giving the effect: 0.019
[1]; 50 mg/kg/day
  Free plasma concentration at the steady state giving the effect: 0.034
